The record followed here is US11497833B2, “Self-assembling peptides comprising non-Ionic polar amino acids” (3-D Matrix, Ltd., priority 2014, dated 2022).

Peptide text beside a SMILES is read from it.

What all share (type): physicochemical
A short description of data set [1]: Dissolution in deionized water and visual appearance of peptide solution. Particulars: deionized water.
Data set [2] in a line: Atomic Force Microscopy (AFM) morphological study of peptide nano structures. The settings on record: 100 μM peptide solution on mica, rinsed, air-dried, tapping mode. As for the experimental part: Each sample was left on the mica for about 30 seconds (s) and then rinsed with aliquots of 100 μl of Milli-Q (ultrapure) water to remove unattached peptides. The sample on the mica surface was then air-dried for AFM observation. AFM was performed with Asylum-1 MFP-3D AFM System (Asylum Research, Santa Barbara, Calif.) using a tapping mode. The images utilized an Olympus Si tip (AC240FS). The cantilever's free resonance frequency was 70 kHz.

Data set [3] can be described thus: Stability to autoclave sterilization, mass spectrometry before and after autoclave. Particulars: 121° C. for 25 min, high pressure saturated steam; mass spec before and after; N- and C-terminus not protected. An excerpt:
Sterilization is a very important step in the manufacturing process for all biomaterials, including the self-assembling peptide solutions.

Data set [4] can be described thus: Congo Red assay of gel formation in PBS buffer (pH 7.4). The settings on record: 1% Congo Red in PBS buffer pH 7.4. As for the experimental part:
A Congo Red assay was performed to determine gel formation of peptide solutions in a PBS buffer solution (pH 7.4). 100 μl of each gel at varying concentrations were plated on a glass slide. After 30 seconds, 500 μl of a 1% Congo Red solution in PBS buffer (pH 7.4) was added around and on top of each of the gel aliquots and then the excess Congo Red solution was wiped off prior to examination.
Visualization of gel formation determined the success or failure of gelation at each concentration.

Data set [5] is described as follows: Rheological properties at various concentrations (rheometer, stress sweep). The settings on record: 37° C., 10 rad/s; for Loss Modulus (G')* / Storage Modulus (G')*: at 1 Pa of oscillation stress. The method, then:
The rheological properties of the ST14 (SEQ ID NO:2) were evaluated at various concentrations using a rheometer (AR500, TA Instruments) with 40 mm plates. Peptide solution (700μL) was placed on the rheometer plate and excess solution was gently removed by Kimwipes; measurements were performed after 2 minutes of relaxation time at 37° C. The storage modulus, loss modulus, and viscosity (η′) were measured at 37° C. with the plates placed at a measuring geometry gap of 300 μm, and stress sweep tests were performed at 0.1 Pa˜1000 Pa of oscillation stress with angular frequency at 10 rad/s.

As for `CC(O)C(N)C(=O)NC(C(=O)NC(C(=O)NC(C(=O)NC(C(=O)NC(C(=O)NC(C(=O)NC(C(=O)NC(C(=O)NC(C(=O)NC(C(=O)NC(C(=O)NC(C(=O)NC(C(=O)O)C(C)O)C(C)O)C(C)O)C(C)O)C(C)O)C(C)O)C(C)O)C(C)O)C(C)O)C(C)O)C(C)O)C(C)O)C(C)O` (stereo not drawn) [Peptide T14, TTTTTTTTTTTTTT], the appearance in solution result in data set [1] (1 percent w/v to 5 percent w/v) is reported as “translucent”. Moreover, in data set [1] (5 percent w/v), the solution consistency result is listed as “formed a thick solution”. Also, the “AFM morphology (nano structure)” value in data set [2] is “Aggregates”. Further, the “degradation during autoclave treatment” value in data set [3] is “did not degrade”. Moreover, in data set [4] (below 1% peptide), the gel formation result is reported as “did not form a gel”.
Regarding `CC(O)C(NC(=O)C(CO)NC(=O)C(NC(=O)C(CO)NC(=O)C(NC(=O)C(CO)NC(=O)C(NC(=O)C(CO)NC(=O)C(NC(=O)C(CO)NC(=O)C(NC(=O)C(CO)NC(=O)C(NC(=O)C(N)CO)C(C)O)C(C)O)C(C)O)C(C)O)C(C)O)C(C)O)C(=O)O` (stereo not drawn) [ST14, STSTSTSTSTSTST] (H-STSTSTSTSTSTST-OH; configuration not given here), the appearance in solution result in data set [1] (1 percent w/v to 5 percent w/v) was “translucent”. Further, the solution consistency result in data set [1] (1 percent w/v to 5 percent w/v) was “formed thick solutions”. Further, the “Max. Viscosity (max η')” value was found to be 1.2 Pa-s in data set [5] (Concentration 1), 1.5 Pa-s in data set [5] (Concentration 1.5), 2.0 Pa-s in data set [5] (Concentration 2) and 2.2 Pa-s in data set [5] (Concentration 2.5). For the same compound, the “Loss Modulus (G')*” value was found to be 11.4 Pa in data set [5] (Concentration 1), 9.8 Pa in data set [5] (Concentration 1.5), 17.3 Pa in data set [5] (Concentration 2) and 17.1 Pa in data set [5] (Concentration 2.5). The “Storage Modulus (G')*” value in data set [5] (Concentration 1) was found to be 67 Pa; in data set [5] (Concentration 1.5) it was 94 Pa; in data set [5] (Concentration 2) it was 136 Pa; in data set [5] (Concentration 2.5), 167 Pa. Besides, the “degradation during autoclave treatment” value in data set [3] is recorded as “did not degrade”. The gel formation entry in data set [4] (0.5% peptide) is “did not form a gel”.
